Patent US8198217B2, “Composition for weeding” (Kumiai Chemical Industry Co., Ltd., priority 2007, dated 2012)

Legend:
marsh dayflower (ANEKE) = assay: Weed control effect test on paddy fields; type: in vivo; details: applied onto water surface, 25th day from treatment
From the text: (§1) A plastic pot of 1/20000 are area was each filled with a paddy field soil which was manured and shuffled followed by sowing of the respective seeds of early watergrass (ECHOR), heartshape false pickerelweed (MOOVA), rock's bulrush (SCIJO) and marsh dayflower (ANEKE) and burying of tuberous roots of tidalmarsh flatsedge (CYPSE) followed by pooling of water in a water depth of 1 cm. And, paddy rice plants (Or) at the two-leaves stage were transplanted to the same pot and grown in a greenhouse. Thereafter, on the day when the early watergrass had reached its 2.5 leaves stage, pooling of water was undertaken in order to make the water depth to 3 cm and agents each prepared by dilution of a specified amount of the wettable powder prepared in the same manner as in Example 1 and 2 with water was applied onto the water surface, respectively. Then, growing was continued keeping the pooling water depth of 3 cm to record the weed control effect and the extent of phytotoxicity on the 25th day from the treatment as indexes according to the criteria given in Table 1. The dosages are given in terms of the amount of the active ingredients per 10 ares area.

[1] = tested on: heartshape false pickerelweed (MOOVA); assay: Weed control effect test on paddy fields; type: in vivo, Monochoria vaginalis; details: applied onto water surface, 25th day from treatment
From the text: as §1

yellow nutsedge (CYPES) = assay: Weed control effect test by stems-and-leaves treatment; type: in vivo; details: 30th day from treatment
Procedure: (§2) A plastic pot of 1/2000 are area was each filled with a dry-field soil where the respective seeds of corn (ZEAMX), pitted morningglory (IPOLA), velvet leaf (ABUTH) and lamb's-quarters (CHEAL) were sowed and tuberous roots of yellow nutsedge (CYPES) were buried followed by pooling of water from the bottom part of the pot. These seeds and tuberous roots were grown in a greenhouse. On the day when the pitted morningglory had reached its 4 leaves stage, a stems-and-leaves treatment was undertaken on the whole plant bodies with agents each prepared by dilution of a specified amount of the water-dispersible granules prepared in the same manner as in Example 3, 4 and 5 with water, respectively. Thereafter, growing was continued in the glasshouse to record the weed control effect and the extent of phytotoxicity on the 30th day from the treatment as indexes according to the criteria given in Table 1. The dosages are given in terms of the amount of the active ingredients per hectare (ha).

velvet leaf (ABUTH) = assay: as above; type: in vivo; details: 30th day from treatment
Procedure: as §2

lamb's-quarters (CHEAL) = assay: as above; type: in vivo; details: 30th day from treatment
Procedure: as §2

[2] = tested on: pitted morningglory (IPOLA); assay: as above; type: in vivo; details: 30th day from treatment
Procedure: as §2

[3] = tested on: tidalmarsh flatsedge (CYPSE); assay: Weed control effect test on paddy fields; type: in vivo, Cyperus serotinus; details: applied onto water surface, 25th day from treatment
From the text: as §1

paddy rice plants (Or) = assay: Weed control effect test on paddy fields: phytotoxicity to paddy rice; type: in vivo; details: applied onto water surface, 25th day from treatment
From the text: as §1

rock's bulrush (SCIJO) = assay: Weed control effect test on paddy fields; type: in vivo, Scirpus juncoides; details: applied onto water surface, 25th day from treatment
From the text: as §1

early watergrass (ECHOR) = assay: Weed control effect test on paddy fields; type: in vivo, Echinochloa oryzicola; details: applied onto water surface, 25th day from treatment
From the text: as §1

corn (ZEAMX) = assay: Weed control effect test by stems-and-leaves treatment: phytotoxicity to corn; type: in vivo; details: 30th day from treatment
Procedure: as §2, with “On the day when the pitted morningglory had reached its 4 leaves stage, a stems-and-leaves treatment was undertaken on the whole plant bodies with agents each prepared by dilution of a specified amount of the water-dispersible granules prepared in the same manner as in Example 3, 4 and 5 with water, respectively.” left out

## COCc1cccc(C(O)c2nc(OC)cc(OC)n2)c1NS(=O)(=O)C(F)F (stereo not shown) [Compound A-1, 2-[(4,6-dimethoxypyrimidin-2-yl)hydroxymethyl]-6-methoxymethyl-N-difluoromethanesulfonylanilide]
Marsh dayflower (ANEKE); 3 g a.i./10a
  weed control effect index, ANEKE: 2 (not less than 15% but less than 25% growth inhibition)
[1]; 3 g a.i./10a
  weed control effect index, MOOVA: 7 (not less than 65% but less than 75% growth inhibition)
Yellow nutsedge (CYPES); 10 g a.i./ha
  weed control effect index, CYPES: 7 (not less than 65% but less than 75% growth inhibition)
Velvet leaf (ABUTH); 10 g a.i./ha
  weed control effect index, ABUTH: 5 (not less than 45% but less than 55% growth inhibition)
lamb's-quarters (CHEAL); 10 g a.i./ha
  weed control effect index, CHEAL: 1 (not less than 5% but less than 15% growth inhibition)
[2]; 10 g a.i./ha
  weed control effect index, IPOLA: 6 (not less than 55% but less than 65% growth inhibition)
[3]; 3 g a.i./10a
  weed control effect index, CYPSE: 8 (not less than 75% but less than 85% growth inhibition)
Paddy rice plants (Or); 3 g a.i./10a
  extent of phytotoxicity index, OR: 0 (less than 5% growth inhibition)
rock's bulrush (SCIJO); 3 g a.i./10a
  weed control effect index, SCIJO: 8 (not less than 75% but less than 85% growth inhibition)
Early watergrass (ECHOR); 3 g a.i./10a
  weed control effect index, ECHOR: 7 (not less than 65% but less than 75% growth inhibition)
Corn (ZEAMX); 10 g a.i./ha
  extent of phytotoxicity index, ZEAMX: 0 (less than 5% growth inhibition)

## CCCc1ccc2nc(Cl)c(S(=O)(=O)NC(=O)Nc3nc(OC)cc(OC)n3)n2n1 [TH-547, 1-(2-chloro-6-propylimidazo[1,2-b]pyridazin-3-ylsulfonyl)-3-(4,6-dimethoxypyrimidin-2-yl)urea]
Marsh dayflower (ANEKE); 7 g a.i./10a
  weed control effect index, ANEKE: 4 (not less than 35% but less than 45% growth inhibition)
[1]; 7 g a.i./10a
  weed control effect index, MOOVA: 7 (not less than 65% but less than 75% growth inhibition)
[3]; 7 g a.i./10a
  weed control effect index, CYPSE: 6 (not less than 55% but less than 65% growth inhibition)
Paddy rice plants (Or); 7 g a.i./10a
  extent of phytotoxicity index, OR: 0 (less than 5% growth inhibition)
rock's bulrush (SCIJO); 7 g a.i./10a
  weed control effect index, SCIJO: 6 (not less than 55% but less than 65% growth inhibition)
Early watergrass (ECHOR); 7 g a.i./10a
  weed control effect index, ECHOR: 7 (not less than 65% but less than 75% growth inhibition)

## CCNc1nc(Cl)nc(NC(C)C)n1 [atrazine]
Yellow nutsedge (CYPES); 1000 g a.i./ha
  weed control effect index, CYPES: 3 (not less than 25% but less than 35% growth inhibition)
Velvet leaf (ABUTH); 1000 g a.i./ha
  weed control effect index, ABUTH: 3 (not less than 25% but less than 35% growth inhibition)
lamb's-quarters (CHEAL); 1000 g a.i./ha
  weed control effect index, CHEAL: 8 (not less than 75% but less than 85% growth inhibition)
[2]; 1000 g a.i./ha
  weed control effect index, IPOLA: 3 (not less than 25% but less than 35% growth inhibition)
Corn (ZEAMX); 1000 g a.i./ha
  extent of phytotoxicity index, ZEAMX: 0 (less than 5% growth inhibition)

## COC(=O)CSc1cc(/N=c2\sc(=O)n3n2CCCC3)c(F)cc1Cl [fluthiacet-methyl]
Yellow nutsedge (CYPES); 5 g a.i./ha
  weed control effect index, CYPES: 2 (not less than 15% but less than 25% growth inhibition)
Velvet leaf (ABUTH); 5 g a.i./ha
  weed control effect index, ABUTH: 9 (not less than 85% but less than 95% growth inhibition)
lamb's-quarters (CHEAL); 5 g a.i./ha
  weed control effect index, CHEAL: 8 (not less than 75% but less than 85% growth inhibition)
[2]; 5 g a.i./ha
  weed control effect index, IPOLA: 3 (not less than 25% but less than 35% growth inhibition)
Corn (ZEAMX); 5 g a.i./ha
  extent of phytotoxicity index, ZEAMX: 0 (less than 5% growth inhibition)

## CCC1(CC2(c3cccc(Cl)c3)CO2)C(=O)c2ccccc2C1=O (stereo not shown) [indanofan]
Marsh dayflower (ANEKE); 15 g a.i./10a
  weed control effect index, ANEKE: 5 (not less than 45% but less than 55% growth inhibition)
[1]; 15 g a.i./10a
  weed control effect index, MOOVA: 5 (not less than 45% but less than 55% growth inhibition)
[3]; 15 g a.i./10a
  weed control effect index, CYPSE: 1 (not less than 5% but less than 15% growth inhibition)
rock's bulrush (SCIJO); 15 g a.i./10a
  weed control effect index, SCIJO: 3 (not less than 25% but less than 35% growth inhibition)
Early watergrass (ECHOR); 15 g a.i./10a
  weed control effect index, ECHOR: 6 (not less than 55% but less than 65% growth inhibition)

## COc1cc(OC)nc(NC(=O)NS(=O)(=O)c2ncccc2C(=O)N(C)C)n1 [nicosulfuron]
Yellow nutsedge (CYPES); 35 g a.i./ha
  weed control effect index, CYPES: 4 (not less than 35% but less than 45% growth inhibition)
Velvet leaf (ABUTH); 35 g a.i./ha
  weed control effect index, ABUTH: 2 (not less than 15% but less than 25% growth inhibition)
lamb's-quarters (CHEAL); 35 g a.i./ha
  weed control effect index, CHEAL: 8 (not less than 75% but less than 85% growth inhibition)
[2]; 35 g a.i./ha
  weed control effect index, IPOLA: 3 (not less than 25% but less than 35% growth inhibition)
Corn (ZEAMX); 35 g a.i./ha
  extent of phytotoxicity index, ZEAMX: 0 (less than 5% growth inhibition)
